# Test results: ChEMBL document CHEMBL4007507 (J Med Chem, 2017)
# Test system: SJSA-1
# Test: cells
# Settings: Homo sapiens
row,IC50 [µM],Compound
1,> 10,CN1[C@@H](c2nc(C(=O)O)co2)[C@H](c2cccc(Cl)c2F)[C@]2(C(=O)Nc3cc(Cl)ccc32)C12CCCCC2
2,12.1,Cc1noc([C@H]2[C@H](c3cccc(Cl)c3F)[C@]3(C(=O)Nc4cc(Cl)ccc43)C3(CCCCC3)N2C)n1
3,3,Cc1nnc([C@H]2[C@H](c3cccc(Cl)c3F)[C@]3(C(=O)Nc4cc(Cl)ccc43)C3(CCCCC3)N2C)s1
4,1.9,O=C(NC[C@H]1CC[C@H](C(=O)O)CC1)[C@@H]1NC2(CCCCC2)[C@@]2(C(=O)Nc3cc(Cl)ccc32)[C@H]1c1cccc(Cl)c1F
5,5,Cc1nnc([C@H]2[C@H](c3cccc(Cl)c3F)[C@]3(C(=O)Nc4cc(Cl)ccc43)C3(CCCCC3)N2C)o1
6,0.54,O=C(NC1CCS(=O)(=O)CC1)[C@@H]1NC2(CCCCC2)[C@@]2(C(=O)Nc3cc(Cl)ccc32)[C@H]1c1cccc(Cl)c1F
7,0.22,O=C(N[C@H]1C[C@H](C(=O)O)C1)[C@@H]1NC2(CCCCC2)[C@@]2(C(=O)Nc3cc(Cl)ccc32)[C@H]1c1cccc(Cl)c1F
8,5.8,CS(=O)(=O)NC(=O)c1ccc(NC(=O)[C@@H]2NC3(CCCCC3)[C@@]3(C(=O)Nc4cc(Cl)ccc43)[C@H]2c2cccc(Cl)c2F)cc1
9,0.048,CC1(C)CCC2(CC1)N[C@@H](C(=O)N[C@H]1CC[C@H](O)CC1)[C@H](c1cccc(Cl)c1F)[C@]21C(=O)Nc2cc(Cl)ccc21
